In US6737383B1, “Herbicidal oxadiazolidines” (priority 1999, dated 2004):

What was measured:
rape = assay: Test B pre/postemergence rape; assay type: in vivo, Brassica napus; conditions: Preemergence; for Plant response rating, Rape: Rate 125 g/ha
Summary of the method: (§1)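 Herbicidal effect was estimated by eye on a ten-point control scale after plants spent twelve to sixteen days in a greenhouse following soil or foliar treatment. Foliar sprays targeted plants at one to four leaves; all doses were formulated in a non-phytotoxic solvent with surfactant.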

blackgrass = assay: Test B pre/postemergence blackgrass; assay type: in vivo, Alopecurus myosuroides; conditions: Preemergence; for Plant response rating, Blackgrass: Rate 125 g/ha
Summary of the method: as §1

sugar beet = assay: Test B pre/postemergence sugar beet; assay type: in vivo, Beta vulgaris; conditions: Preemergence; for Plant response rating, Sugarbeets: Rate 125 g/ha
Summary of the method: as §1

crabgrass = assay: Test B pre/postemergence crabgrass; assay type: in vivo, Digitaria sanguinalis; conditions: Preemergence; for Plant response rating, Crabgrass: Rate 125 g/ha
Summary of the method: as §1

bedstraw = assay: Test B pre/postemergence bedstraw; assay type: in vivo, Galium aparine; conditions: Preemergence; for Plant response rating, Bedstraw: Rate 125 g/ha
Summary of the method: as §1

purple nutsedge = assay: Test B pre/postemergence purple nutsedge; assay type: in vivo, Cyperus rotundus; conditions: Preemergence; for Plant response rating, Nutsedge: Rate 125 g/ha
Summary of the method: as §1

surinam grass = assay: Test B pre/postemergence surinam grass; assay type: in vivo, Brachiaria decumbens; conditions: Preemergence; for Plant response rating, B. signalgrass: Rate 125 g/ha
Summary of the method: as §1

velvetleaf = assay: Test B pre/postemergence velvetleaf; assay type: in vivo, Abutilon theophrasti; conditions: Preemergence; for Plant response rating, Velvetleaf: Rate 125 g/ha
Summary of the method: as §1

corn = assay: Test B pre/postemergence corn; assay type: in vivo, Zea mays; conditions: Preemergence; for Plant response rating, Corn: Rate 125 g/ha
Summary of the method: as §1

morningglory = assay: Test B pre/postemergence morningglory; assay type: in vivo, Ipomoea hederacea; conditions: Preemergence; for Plant response rating, Morningglory: Rate 125 g/ha
Summary of the method: as §1

pigweed = assay: Test B pre/postemergence pigweed; assay type: in vivo, Amaranthus retroflexus; conditions: Preemergence; for Plant response rating, Redroot pigweed: Rate 125 g/ha
Summary of the method: as §1

wild oat = assay: Test B pre/postemergence wild oat; assay type: in vivo, Avena fatua; conditions: Preemergence; for Plant response rating, Wild oats: Rate 125 g/ha
Summary of the method: as §1

soybean = assay: Test B pre/postemergence soybean; assay type: in vivo, Glycine max; conditions: Preemergence; for Plant response rating, Soybean: Rate 125 g/ha
Summary of the method: as §1

giant foxtail = assay: Test B pre/postemergence giant foxtail; assay type: in vivo, Setaria faberii; conditions: Preemergence; for Plant response rating, Giant foxtail: Rate 125 g/ha
Summary of the method: as §1

cocklebur = assay: Test B pre/postemergence cocklebur; assay type: in vivo, Xanthium strumarium; conditions: Preemergence; for Plant response rating, Cocklebur: Rate 125 g/ha
Summary of the method: as §1

wheat = assay: Test B pre/postemergence wheat; assay type: in vivo, Triticum aestivum; conditions: Preemergence; for Plant response rating, Wheat: Rate 125 g/ha
Summary of the method: as §1

[1] = Rate 62 g/ha, scale of 0 to 10 where 0 is no effect and 10 is complete control
[2] = scale of 0 to 10 where 0 is no effect and 10 is complete control
[3] = Rate 250 g/ha, scale 0 (no effect) to 10 (complete control)
[4] = Rate 500 g/ha, scale 0 to 10 (0 no effect, 10 complete control)

CC(C)N(C(=O)n1oc(=O)n(CCC(=O)N(C)C)c1=O)c1ccc(Cl)cc1 [Compound 719]
Rape plant response rating (rape; [1]): 0 | Plant response rating, Rape (rape; [2]): 0 | Rape plant response rating (rape; [3]): 2 | Rape plant response rating (rape; [4]): 6 | Blackgrass plant response rating (blackgrass; [1]): 6 | Plant response rating, Blackgrass (blackgrass; [2]): 8 | Blackgrass plant response rating (blackgrass; [3]): 9 | Blackgrass plant response rating (blackgrass; [4]): 10 | Sugarbeets plant response rating (sugar beet; [1]): 4 | Plant response rating, Sugarbeets (sugar beet; [2]): 4 | Sugarbeets plant response rating (sugar beet; [3]): 6 | Sugarbeets plant response rating (sugar beet; [4]): 8 | Plant response rating, Crabgrass (crabgrass; [2]): 3 | Crabgrass plant response rating (crabgrass; [3]): 8 | Crabgrass plant response rating (crabgrass; [4]): 9 | Bedstraw plant response rating (bedstraw; [1]): 0 | Plant response rating, Bedstraw (bedstraw; [2]): 0 | Bedstraw plant response rating (bedstraw; [3]): 0 | Bedstraw plant response rating (bedstraw; [4]): 0 | Nutsedge plant response rating (purple nutsedge; [1]): 0 | Plant response rating, Nutsedge (purple nutsedge; [2]): 0 | Nutsedge plant response rating (purple nutsedge; [3]): 0 | Nutsedge plant response rating (purple nutsedge; [4]): 0 | B. signalgrass plant response rating (surinam grass; [1]): 3 | Plant response rating, B. signalgrass (surinam grass; [2]): 7 | B. signalgrass plant response rating (surinam grass; [3]): 7 | B. signalgrass plant response rating (surinam grass; [4]): 9 | Velvetleaf plant response rating (velvetleaf; [1]): 0 | Plant response rating, Velvetleaf (velvetleaf; [2]): 0 | Velvetleaf plant response rating (velvetleaf; [3]): 0 | Velvetleaf plant response rating (velvetleaf; [4]): 0 | Corn plant response rating (corn; [1]): 0 | Plant response rating, Corn (corn; [2]): 0 | Corn plant response rating (corn; [3]): 0 | Corn plant response rating (corn; [4]): 5 | Morningglory plant response rating (morningglory; [1]): 0 | Plant response rating, Morningglory (morningglory; [2]): 1 | Morningglory plant response rating (morningglory; [3]): 3 | Morningglory plant response rating (morningglory; [4]): 3 | Redroot pigweed plant response rating (pigweed; [1]): 7 | Plant response rating, Redroot pigweed (pigweed; [2]): 7 | Redroot pigweed plant response rating (pigweed; [3]): 10 | Redroot pigweed plant response rating (pigweed; [4]): 10 | Wild oats plant response rating (wild oat; [1]): 2 | Plant response rating, Wild oats (wild oat; [2]): 6 | Wild oats plant response rating (wild oat; [3]): 9 | Wild oats plant response rating (wild oat; [4]): 9 | Soybean plant response rating (soybean; [1]): 0 | Plant response rating, Soybean (soybean; [2]): 0 | Soybean plant response rating (soybean; [3]): 0 | Soybean plant response rating (soybean; [4]): 0 | Plant response rating, Giant foxtail (giant foxtail; [2]): 5 | Giant foxtail plant response rating (giant foxtail; [3]): 8 | Giant foxtail plant response rating (giant foxtail; [4]): 10 | Cocklebur plant response rating (cocklebur; [1]): 0 | Plant response rating, Cocklebur (cocklebur; [2]): 0 | Cocklebur plant response rating (cocklebur; [3]): 0 | Cocklebur plant response rating (cocklebur; [4]): 0 | Wheat plant response rating (wheat; [1]): 0 | Plant response rating, Wheat (wheat; [2]): 0 | Wheat plant response rating (wheat; [3]): 3 | Wheat plant response rating (wheat; [4]): 5

COCC(OC)n1c(=O)on(C(=O)N(c2ccc(Cl)cc2)C(C)C)c1=O (stereo not drawn) [Compound 726]
Rape plant response rating (rape; [1]): 0 | Plant response rating, Rape (rape; [2]): 0 | Rape plant response rating (rape; [3]): 0 | Rape plant response rating (rape; [4]): 7 | Blackgrass plant response rating (blackgrass; [1]): 7 | Plant response rating, Blackgrass (blackgrass; [2]): 8 | Blackgrass plant response rating (blackgrass; [3]): 8 | Blackgrass plant response rating (blackgrass; [4]): 9 | Sugarbeets plant response rating (sugar beet; [1]): 0 | Plant response rating, Sugarbeets (sugar beet; [2]): 0 | Sugarbeets plant response rating (sugar beet; [3]): 5 | Sugarbeets plant response rating (sugar beet; [4]): 5 | Crabgrass plant response rating (crabgrass; [1]): 9 | Plant response rating, Crabgrass (crabgrass; [2]): 9 | Crabgrass plant response rating (crabgrass; [3]): 9 | Crabgrass plant response rating (crabgrass; [4]): 10 | Bedstraw plant response rating (bedstraw; [1]): 0 | Plant response rating, Bedstraw (bedstraw; [2]): 0 | Bedstraw plant response rating (bedstraw; [3]): 0 | Bedstraw plant response rating (bedstraw; [4]): 0 | Nutsedge plant response rating (purple nutsedge; [1]): 0 | Plant response rating, Nutsedge (purple nutsedge; [2]): 0 | Nutsedge plant response rating (purple nutsedge; [3]): 0 | Nutsedge plant response rating (purple nutsedge; [4]): 0 | B. signalgrass plant response rating (surinam grass; [1]): 4 | Plant response rating, B. signalgrass (surinam grass; [2]): 7 | B. signalgrass plant response rating (surinam grass; [3]): 7 | B. signalgrass plant response rating (surinam grass; [4]): 9 | Velvetleaf plant response rating (velvetleaf; [1]): 0 | Plant response rating, Velvetleaf (velvetleaf; [2]): 0 | Velvetleaf plant response rating (velvetleaf; [3]): 0 | Velvetleaf plant response rating (velvetleaf; [4]): 0 | Corn plant response rating (corn; [1]): 0 | Plant response rating, Corn (corn; [2]): 0 | Corn plant response rating (corn; [3]): 0 | Corn plant response rating (corn; [4]): 2 | Morningglory plant response rating (morningglory; [1]): 0 | Plant response rating, Morningglory (morningglory; [2]): 0 | Morningglory plant response rating (morningglory; [3]): 1 | Morningglory plant response rating (morningglory; [4]): 1 | Redroot pigweed plant response rating (pigweed; [1]): 0 | Plant response rating, Redroot pigweed (pigweed; [2]): 4 | Redroot pigweed plant response rating (pigweed; [3]): 7 | Redroot pigweed plant response rating (pigweed; [4]): 8 | Wild oats plant response rating (wild oat; [1]): 1 | Plant response rating, Wild oats (wild oat; [2]): 7 | Wild oats plant response rating (wild oat; [3]): 8 | Wild oats plant response rating (wild oat; [4]): 9 | Soybean plant response rating (soybean; [1]): 0 | Plant response rating, Soybean (soybean; [2]): 0 | Soybean plant response rating (soybean; [3]): 0 | Soybean plant response rating (soybean; [4]): 0 | Giant foxtail plant response rating (giant foxtail; [1]): 9 | Plant response rating, Giant foxtail (giant foxtail; [2]): 9 | Giant foxtail plant response rating (giant foxtail; [3]): 10 | Giant foxtail plant response rating (giant foxtail; [4]): 10 | Cocklebur plant response rating (cocklebur; [1]): 0 | Plant response rating, Cocklebur (cocklebur; [2]): 0 | Cocklebur plant response rating (cocklebur; [3]): 0 | Cocklebur plant response rating (cocklebur; [4]): 0 | Wheat plant response rating (wheat; [1]): 0 | Plant response rating, Wheat (wheat; [2]): 0 | Wheat plant response rating (wheat; [3]): 0 | Wheat plant response rating (wheat; [4]): 0
